We go through twelve compounds from patent publication US12129475B2, “Glycoalkaloid metabolism enyzymes (GAMES) and uses thereof” (priority 2017, dated 2024).

Series [1] deals with tomato GAME25. Kind of series: In vitro assay of recombinant tomato GAME25 (Sf9 microsomes, NAD+). The note with it: 100 μM substrate, NAD+ 150 μM, pH 7.4, 37° C., 4 hrs; LC-MS. Format: biochemical, Solanum lycopersicum. How it is done: (§1) For enzyme assay experiments, an additional MS-MS analysis with a collision energy ramp from 20 to 50 eV was performed to identify the structures of the enzymatic reaction products. The solanid-4-en-3-one product was identified based on the comparison of its retention time and MS-MS spectrum to those measured for its corresponding standard. Another three products (tomatid-4-en-3-one, solasod-4-en-3-one and diosgen-4-en-3-one) were putatively assigned as follows: first, elemental composition based on accurate masses and the isotopic pattern was calculated using the MassLynx software. Then the MS-MS fragmentation pattern was analyzed, and the fragments were assigned applying the fragmentation rules for steroid-based compounds.
(§2) Each expression vector construct was co-transfected with the ProGreen GFP linearized baculovirus DNA (AB vector) to generate the recombinant viruses in Spodoptera frugiperda (Sf9) insect cells. Infection efficiency was monitored by fluorescence of recombinant GFP viruses infected cells. Sf9 cells were grown in ESF921, protein free culture medium (Expression Systems). Three days post-infection cells were collected and washed twice in PBS. Microsomal fractions were isolated by suspending the cell pellet in 20 mM potassium phosphate buffer pH 7.25, 20% (v/v) glycerol, 1 mM EDTA and 1 mM DTT. The resuspended cells were sonicated, and the cell debris was removed by centrifugation at 10,000×g for 15 min. The supernatant was further centrifuged at 100,000×g for 60 min. The pellet containing the microsomal fractions was homogenized in lysis buffer. GAME25 was expressed with a myc-tag at the C-terminus. The isolated microsomal fractions were analyzed by SDS-PAGE and immune-blot with c-myc antibodies (A2S Technologies Ltd.).
(§3) The steroidal alkaloid aglycones dehydrotomatidine, solanidine and solasodine as well as their glycosylated forms (i.e. SGAs) α-tomatine, α-solanine, α-chaconine and α-solamargine were used as substrates for GAME25 enzyme assays. In vitro assays for the tomato and potato recombinant GAME25 enzymes were performed as follows: Briefly, microsomal fractions of Sf9 cells expressing tomato or potato GAME25 proteins (0.2 mg total protein was used per reaction) were separately incubated in sodium phosphate buffer (pH 7.4) with 100 μM of each individual substrate (details are mentioned above), DTT (5 mM) and NAD^+ (150 μM) at 37° C. for 4 hrs. The reactions were stopped by addition of 300 μl of 80% methanol and 0.1% formic acid, followed by brief vortex and sonication for 15 min. Finally, the extracts were centrifuged for 15 min at 14,000×g, filtered through 0.22 μm filters, and analyzed by LC-MS (see Plant extracts preparation and targeted profiling of steroidal metabolites section above). Sf9 cells (without the baculovirus vector) microsomes were used in control enzyme reactions.

Another series concerns potato GAME25. Kind of series: In vitro assay of recombinant potato GAME25 (Sf9 microsomes, NAD+). Format: biochemical, Solanum tuberosum. The note with it: 100 μM substrate, NAD+ 150 μM, pH 7.4, 37° C., 4 hrs; LC-MS. The protocol: as §1, §2, §3
The test system of the next series is plant cells. The note with it: cited from earlier work.
In the next series the test system is GAME35. Kind of series: GAME35 enzyme assay. The note with it: 150 μM substrate, NADH or NADPH, 30° C., 3 hrs. Type of series: biochemical, tomato. The protocol: (§4) GAME25 and GAME35 genes were cloned into pET28 vector separately and expressed in E. coli BL21 (DE3). Bacterial cells were grown in LB medium at 37° C. When cultures reached A600=0.6, protein expression was induced with 200 μM of isopropyl-1-thio-β-d-galactopyranoside (IPTG) at 15° C. for 24 h. Bacterial cells were lysed by sonication in 50 mM Tris-HCl pH 7.5, 500 mM NaCl, 1 mM PMSF and protease inhibitor cocktail (Calbiochem). An aliquot of whole cell extract was kept for further analysis. Soluble protein was purified using Ni-NTA agarose beads (Adar Biotech) and eluted with 500 mM imidazole in buffer containing 50 mM NaH2PO4 pH-7.5 and 300 mM NaCl. The whole cell extract and the eluted fractions were analyzed by SDS-PAGE staining with InstatBlue and by Western blot with HRP conjugated anti-His antibodies (Sigma).
Purified GAME35 protein (5 μg) was incubated with solanid-4-en-3-one substrate (150 μM), DTT (1 mM), NADH or NADPH (500 μM) in sodium phosphate buffer (pH 7.4) at 30° C. for 3 hrs. The reactions were stopped by addition of 250 μl of 80% methanol and 0.1% formic acid, and followed by brief vortex and sonication for 15 min. Finally, the extracts were centrifuged for 10 min at 13,000×g and filtered through 0.22 μm filters, and analyzed by LC-MS, as described in the section above (plant extracts preparation and targeted profiling of steroidal metabolites). […]

For the next series, the system named is SlGAME31. Kind of series: Enzymatic activity assay of recombinant SlGAME31 (hydroxylation of SA/SGAs). Particulars: full reaction: ketoglutaric acid, ascorbic acid, FeSO4, 20 μM substrate, 30° C., 1 h. Type of series: biochemical, Solanum lycopersicum. How it is done: (§5) GAME31 was amplified from cDNA (SEQ ID NO: 17) and cloned into pET28 vector by restriction free (RF) cloning as described previously (Unger et al., 2010, J Struct Biol. 172:34-44).
(§6) The resulting plasmids were verified by sequencing and transformed to E. coli BL21 DE3. For isolation of the GAME31-His tagged enzymes, fresh overnight cultures were diluted 1:100 in 1000 ml of LB medium (Formedium) with 50 μg/ml kanamycin and incubated at 37° C. and 250 rpm until an A600 nm of 0.5 was reached. Subsequently, for induction of expression of the recombinant proteins, IPTG was added to a final concentration of […] and the incubation was continued overnight at 16° C. and 250 rpm. Then cells were harvested by centrifugation at 10,000×g and bacteria were lysed by sonication in a buffer (pH 7.4) containing 0.02 M NaH2PO4 0.02 M, 0.5 M NaCl, and SIGMAFAST protease inhibitor tablets (Sigma-Aldrich) and benzonase nuclease (Sigma-Aldrich) according to manufacturer's instructions. Lysed cultures were centrifuged, and the soluble fraction was purified by nickel affinity chromatography which was operated with an AKTA liquid chromatography system (AKTA avant, GE Healthcare) according to the manufacturer's instructions. Proteins were stored at −80° C. until further analysis.
All the SA/SGAs substrates were prepared at a concentration of 1 mg/ml, dissolved in methanol, except dehydrotomatine that was prepared in DMSO. The enzymatic activity was performed according to Kawai et al. (2014) Evolution and diversity of the 2-oxoglutarate-dependent dioxygenase superfamily in plants. Plant J. 78: 328-43. Briefly, the standard full reaction (100 μL) consisted of 10 mM L-ascorbic acid, 10 mM α-ketoglutaric acid, 500 μM FeSO4, 20 μM substrate, 50 mM potassium phosphate buffer (pH 7.5) and purified enzyme. All the components, except the enzyme, were pre-incubated for 10 min at 30° C., after which the reaction was started by addition of the enzyme. After incubation at 30° C. for 1 h, the reaction was stopped by freezing in liquid nitrogen Finally, the reaction was mixed with 300 μL methanol, extracted and analyzed by UPLC-qTOF-MS as described above.

Another series concerns SmGAME31. Kind of series: Enzymatic activity assay of recombinant SmGAME31 (hydroxylation of SA/SGAs). Format: biochemical, Solanum melongena. Particulars: full reaction, 20 μM substrate, 30° C., 1 h. How it is done:
as §5
as §6, with “Lysed cultures were centrifuged, and the soluble fraction was purified by nickel affinity chromatography which was operated with an AKTA liquid chromatography system (AKTA avant, GE Healthcare) according to the manufacturer's instructions. Proteins were stored at −80° C. until further analysis.” left out
All the SA/SGAs substrates were prepared at a concentration of 1 mg/ml, dissolved in methanol, except dehydrotomatine that was prepared in DMSO. […] After incubation at 30° C. for 1 h, the reaction was stopped by freezing in liquid nitrogen Finally, the reaction was mixed with 300 μL methanol, extracted and analyzed by UPLC-qTOF-MS as described above.

Series [2] relates to tomato GAME25. Kind of series: In vitro assay of purified recombinant tomato GAME25 expressed in E. coli. Format: biochemical, Solanum lycopersicum. Particulars: purified enzyme (5 μg), NAD+ cofactor. How it is done: as §1
as §4, with “Soluble protein was purified using Ni-NTA agarose beads (Adar Biotech) and eluted with 500 mM imidazole in buffer containing 50 mM NaH2PO4 pH-7.5 and 300 mM NaCl.” left out, “(Sigma). […]” for “(Sigma).”

Regarding `C[C@H]1CC[C@@H]2[C@@H](C)[C@H]3[C@H](C[C@H]4[C@@H]5CC=C6C[C@@H](O[C@@H]7O[C@H](CO)[C@H](O[C@@H]8O[C@@H](C)[C@H](O)[C@@H](O)[C@H]8O)[C@H](O)[C@@H]7O[C@@H]7O[C@@H](C)[C@@H](O)[C@@H](O)[C@H]7O)CC[C@]6(C)[C@H]5CC[C@]34C)N2C1` [α-chaconine], the “activity with substrate / product formed” value in the series with tomato GAME25 [1] and in the series with potato GAME25 was “no activity” throughout.
With `C[C@H]1CC[C@]2(NC1)O[C@H]1C[C@H]3[C@@H]4CC=C5C[C@@H](O)CC[C@]5(C)[C@H]4CC[C@]3(C)[C@H]1[C@@H]2C` [dehydrotomatidine], the “activity with substrate / product formed” value with tomato GAME25 [1] and with potato GAME25 was “tomatid-4-en-3-one” throughout. In addition, in the series on plant cells, the “toxicity to plant cells” value is listed as “highly toxic”.
As to `C[C@H]1CC[C@@H]2[C@@H](C)[C@H]3[C@H](C[C@H]4[C@@H]5CC=C6C[C@@H](O[C@@H]7O[C@H](CO)[C@H](O)[C@H](O[C@@H]8O[C@H](CO)[C@@H](O)[C@H](O)[C@H]8O)[C@H]7O[C@@H]7O[C@@H](C)[C@H](O)[C@@H](O)[C@H]7O)CC[C@]6(C)[C@H]5CC[C@]34C)N2C1` [α-solanine], the “activity with substrate / product formed” value in the series with tomato GAME25 [1] and with potato GAME25 was “no activity” in each case.
For the compound `C[C@H]1CC[C@@H]2[C@@H](C)C3C(CC4C5CCC6=CC(=O)CCC6(C)C5CCC43C)N2C1` (stereo partly shown) [solanid-4-en-3-one], the activity with substrate entry in the series on GAME35 is “did not react”.
As for `C[C@H]1CC[C@]2(NC1)O[C@H]1C[C@H]3[C@@H]4CC[C@H]5C[C@@H](O)CC[C@]5(C)[C@H]4CC[C@]3(C)[C@H]1[C@@H]2C` [tomatidine], the hydroxylation of substrate result was “did not show activity” in the series on SlGAME31 and “did not hydroxylate” in the series with SmGAME31. In the series on plant cells, the “toxicity to plant cells” value is “highly toxic”.
As for `C[C@H]1CC[C@@H]2[C@@H](C)[C@H]3[C@H](C[C@H]4[C@@H]5CC=C6C[C@@H](O)CC[C@]6(C)[C@H]5CC[C@]34C)N2C1` [solanidine], the “product formed from substrate” value in the series with tomato GAME25 [2] was “solanid-4-en-3-one”. The “activity with substrate / product formed” value in the series with tomato GAME25 [1] and in the series with potato GAME25 was “solanid-4-en-3-one” in each case.
As for `C[C@@H]1CC[C@@]2(NC1)O[C@H]1C[C@H]3[C@@H]4CC=C5C[C@@H](O)CC[C@]5(C)[C@H]4CC[C@]3(C)[C@H]1[C@@H]2C` [solasodine], the “activity with substrate / product formed” value in the series on tomato GAME25 [1] and with potato GAME25 was “solasod-4-en-3-one” each time.
Consider `CC(C)CCC[C@@H](C)[C@H]1CC[C@H]2[C@@H]3CC=C4C[C@@H](O)CC[C@]4(C)[C@H]3CC[C@]12C` [cholesterol], for which the “activity with substrate / product formed” value in the series on tomato GAME25 [1] and in the series with potato GAME25 was “not reactive” each time.
`C[C@@H]1CC[C@@]2(OC1)O[C@H]1C[C@H]3[C@@H]4CC=C5C[C@@H](O)CC[C@]5(C)[C@H]4CC[C@]3(C)[C@H]1[C@@H]2C` [diosgenin]: in the series with tomato GAME25 [2], the “product formed from substrate” value is on record as “diosgen-4-en-3-one”.
As to cholestenol, the “activity with substrate / product formed” value in the series on tomato GAME25 [1] and in the series with potato GAME25 was “not reactive” each time.
`C[C@H]1CC[C@]2(NC1)O[C@H]1C[C@H]3[C@@H]4CC=C5C[C@@H](O[C@@H]6O[C@H](CO)[C@H](O[C@@H]7O[C@H](CO)[C@@H](O)[C@H](O[C@@H]8OC[C@@H](O)[C@H](O)[C@H]8O)[C@H]7O[C@@H]7O[C@H](CO)[C@@H](O)[C@H](O)[C@H]7O)[C@H](O)[C@H]6O)CC[C@]5(C)[C@H]4CC[C@]3(C)[C@H]1[C@@H]2C` [dehydrotomatine]: the hydroxylation of substrate entry in the series on SlGAME31 was “did perform hydroxylation”. Besides, the “activity with substrate / product formed” value in the series with tomato GAME25 [1] and in the series on potato GAME25 was “no activity” in each case.
Consider `C[C@@H]1CC[C@@]2(NC1)O[C@H]1C[C@H]3[C@@H]4CC=C5C[C@@H](O[C@@H]6O[C@H](CO)[C@@H](O[C@@H]7O[C@@H](C)[C@H](O)[C@@H](O)[C@H]7O)[C@H](O)[C@H]6O[C@@H]6O[C@@H](C)[C@H](O)[C@@H](O)[C@H]6O)CC[C@]5(C)[C@H]4CC[C@]3(C)[C@H]1[C@@H]2C` [α-solamargine], for which the results for the hydroxylation of substrate entry in the series with SlGAME31 and with SmGAME31 were “generating hydroxysolamargine” and “performed hydroxylation”, respectively. The “activity with substrate / product formed” value with tomato GAME25 [1] and in the series with potato GAME25 was “no activity” in each case.
